Values of other authors, collected in US20250331549A1, “AEROSOL-GENERATING ARTICLE WITH AVERSIVE AGENT” (PHILIP MORRIS PRODUCTS S.A., priority 2022, published 2025).
Structures can show the parent of a compound that is named as a salt. Where two headings read alike, the source gives them in different places.

[1] = reciprocal of the dilution that still has a bitter taste, known bittering agents, Table 1
[2] = quinine hydrochloride value is the set reference, denatonium benzoate value is estimated

Row | Compound | Bitterness value [1] | Bitterness value [2]
1 | CC1=C[C@H]2[C@H]3[C@H](C(C)=C4[C@H]5OC(=O)[C@@H](C)[C@@H]5CC[C@](C)(O)[C@@H]43)[C@@]13[C@@H]2[C@@](C)(O)CC[C@H]1[C@H](C)C(=O)O[C@@H]13 [Absinthin, absinthin] | 3,000,000 | –
2 | C[C@@]12C[C@@H](c3ccoc3)OC(=O)[C@@H]1CC[C@]1(C)[C@H]2[C@@H]2C=C[C@@]1(O)C(=O)O2 [Columbin, columbin] | 60,000,000 | –
3 | CC[N+](CC)(CC(=O)Nc1c(C)cccc1C)Cc1ccccc1 [Denatonium benzoate, denatonium benzoate] | >100,000,000 | over 100,000,000
4 | COC1=C[C@@H](C)[C@@H]2C[C@H]3OC(=O)C[C@H]4C(C)=C(OC)C(=O)[C@H]([C@@]2(C)C1=O)[C@@]34C [Quassin, quassin] | 13,000,000 | –
5 | C=C[C@H]1C[N@@]2CC[C@H]1C[C@H]2[C@H](O)c1ccnc2ccc(OC)cc12 [Quinine hydrochloride, quinine hydrochloride, reference compound] | 200,000 | 200,000
6 | amarogentin | 58,000,000 | –
